Results on four compounds are retold here after US20110046039A1, “POST-EXPOSURE PROPHYLAXIS AND TREATMENT OF INFECTIONS” (priority 2007, published 2011).

One assay concerns anthrax spores. Further details: species or system DBA/2 mice. The following applies: mouse, in vivo.
A further assay relates to cultured macrophages. The following applies: cited from earlier work.
In assay [1] the test system is livers of anthrax-challenged mice. The following applies: mouse, in vivo; cited from earlier work.

Structures are written as SMILES. Where a SMILES comes first, the peptide text is derived from it. The star is where a group is joined. Cbz = O=C(OCc1ccccc1)*; CH2F = FC*

`CNC(=O)[C@H]1O[C@@H](n2cnc3c(NCc4cccc(I)c4)nc(Cl)nc32)[C@H](O)[C@@H]1O` [Cl-IB-MECA, 2-chloro-N^6-(3-iodobenzyl)-adenosine-5′-N-methyluronamide]: in the assay on anthrax spores, the “protection of exposed animals” value turned out to be 40% and the “protection of mice against post-exposure anthrax” value is “protect mice against post-exposure anthrax”.
Consider `CNC(=O)[C@H]1O[C@@H](n2cnc3c(NCc4cccc(I)c4)ncnc32)[C@H](O)[C@@H]1O` [IB-MECA, N^6-(3-iodobenzyl)-adenosine-5′-N-methyluronamide], for which, in the assay on anthrax spores, the “protection of mice against post-exposure anthrax” value is on record as “protect mice against post-exposure anthrax”.
Compound `O=C(O)c1cn(C2CC2)c2cc(N3CCNCC3)c(F)cc2c1=O` [ciprofloxacin] showed an animals protected in the assay with anthrax spores (ip, 50 mg/kg) of 30%.
With `COC(=O)C[C@H](NC(=O)[C@H](C)NC(=O)[C@@H](NC(=O)OCc1ccccc1)C(C)C)C(=O)CF` [z-VAD, z-Val-Ala-Asp(OMe)-fluoromethylketone] (Cbz-Val-Ala-Asp(OMe)-CH2F), the anti-apoptotic effect entry (in the assay with cultured macrophages; in assay [1]) was “protective anti-apoptopic effect” throughout.
